Reference: article PMC7887755, “Structure–Activity Relationships of Pyrazolo[1,5-a]pyrimidin-7(4H)-ones as Antitubercular Agents” (ACS Infectious Diseases, 2021)
Converted amounts (≈) assume the structure as drawn. “And” between values parts separate entries of the source, which are not always exact repeats. Identical values can stand only once. Like-named read-outs stand apart in the source and are kept apart here.

Legend:
Mtb H37Rv [1] = test: MIC under iron-depleted (DFO) or iron-replete (FeCl3) conditions; format: cell-based, Mycobacterium tuberculosis
Mtb H37Rv [2] = test: microbe, parasite or virus in culture; format: cell-based, Mycobacterium tuberculosis
Mtb strain H37Rv = test: MIC against Mtb H37Rv under various media/carbon sources; format: cell-based; details: Mycobacterium tuberculosis
Mtb H37Rv WT = test: microbe, parasite or virus in culture; format: cell-based; details: Mycobacterium tuberculosis
in vitro = details: human, 24 h
[3] = Microsomal stability, mouse; format: in vitro ADME; details: liver microsomes of female mouse, read-out: % Remaining after 2 h incubation Mouse
Procedure: (§1) % Remaining after 2 h incubation
(§2) Compound Chemical Structure
(§3) Table S1. Microsomal stability of some pyrazolo[1,5-a]pyrimidin-7(4H)-one derivatives
(§4) Microsomal stability was tested in microsomes from liver of female mouse (M9566 from Sigma-Aldrich)a or microsomes
(§5) from human liver (M0317 from Sigma-Aldrich)b.

[4] = Microsomal stability, human; format: in vitro ADME; details: human liver microsomes, read-out: % Remaining after 2 h incubation Human
Procedure: as §1, §2, §3, §4, §5

HepG2 cells = details: 24 h
[5] = tested on: DNA damage responsive recA and radA reporters; format: cell-based, Mycobacterium tuberculosis
[6] = tested on: cell wall responsive iniBAC promoter (piniB-LUX reporter strain); format: cell-based, Mycobacterium tuberculosis
[7] = Mycobacterium tuberculosis, H37RV, read-out: MIC in 7H9 ADC
[8] = Mycobacterium tuberculosis, H37RV, read-out: MIC in 7H9 GCas
[9] = Cytotoxicity (IC50) Galactose, HepG2 cells in DMEM/10% FBS with galactose
[10] = Cytotoxicity (IC50) Glucose, HepG2 cells in DMEM/10% FBS supplemented with glucose
[11] = read-out: Cytotoxicity (IC50) Galactose, HepG2 cells in DMEM/10% FBS with galactose
[12] = read-out: Cytotoxicity (IC50) Glucose, HepG2 cells in DMEM/10% FBS supplemented with glucose

Compound | MIC (Mtb H37Rv [2]; [7]) [µM] | MIC (Mtb H37Rv [2]; [8]) [µM] | IC50 (in vitro; [9]) [µM] | IC50 (in vitro; [10]) [µM] | MIC (Mtb H37Rv [2]; read-out: MIC in 7H9 GCas) [µM] | other results
[Cl][Fe]([Cl])[Cl] [FeCl3] |  |  |  |  |  | MIC (Mtb H37Rv [1]; MIC of the iron-modulating additive itself): 500 µM
NNC(=O)c1ccncc1 [INH, isoniazid, reference compound] | 0.23 (≈ 0.0315 µg/mL) | 0.16 (≈ 0.0219 µg/mL) |  |  |  | MIC (Mtb strain H37Rv; GAST/Fe, read-out: MIC GAST): 0.1 µM (≈ 0.0137 µg/mL); MIC (Mtb strain H37Rv; read-out: MIC 7H9): 0.39 µM (≈ 0.0535 µg/mL); MIC (Mtb strain H37Rv; read-out: MIC Chol): 0.2 µM (≈ 0.0274 µg/mL); MIC (Mtb strain H37Rv; read-out: MIC GBSA/DBSA): 0.3 µM (≈ 0.0411 µg/mL); MIC (Mtb H37Rv WT): 0.04 µM (≈ 0.00549 µg/mL)
Cc1nn2c(=O)cc(-c3ccccc3)[nH]c2c1C [Compound P21, 2,3-Dimethyl-5-phenylpyrazolo[1,5-a]pyrimidin-7(4H)-one] | > 100 | 12.5 (≈ 2.99 µg/mL) | > 100 | > 100 |  | 
Cc1nn2c(=O)cc(-c3ccc(Cl)c(Cl)c3)[nH]c2c1-c1ccccc1 [Compound P20, 5-(3,4-Dichlorophenyl)-2-methyl-3-phenylpyrazolo[1,5-a]pyrimidin-7(4H)-one] | 2.34 (≈ 0.866 µg/mL) | 1.56 (≈ 0.578 µg/mL) | 55.7 | > 100 |  | remaining at 2 h [3]: 41%; improvement in MIC compared to the initial hit 1 (Mtb H37Rv [2]): 5 fold; remaining at 2 h [4]: 55%
2-Methyl-3-phenyl-5-(pyrazin-2-yl)pyrazolo[1,5-a]pyrimidin-7(4H)-one [Compound P15] |  |  |  |  | 12.5 | MIC (Mtb H37Rv [2]; read-out: MIC in 7H9 ADC): 50.0 µM and 50 µM; IC50 (HepG2 cells; [11]): > 100 µM; IC50 (HepG2 cells; [12]): > 100 µM
Cc1nn2c(=O)c(C(F)(F)F)c(-c3ccccc3)[nH]c2c1-c1ccccc1 [Compound P7, 2-Methyl-3,5-diphenyl-6-(trifluoromethyl)pyrazolo[1,5-a]pyrimidin-7(4H)-one] | 12.5 (≈ 4.62 µg/mL) | 3.12 (≈ 1.15 µg/mL) |  |  |  | 
5-(3-Fluorophenyl)-2-methyl-3-phenylpyrazolo[1,5-a]pyrimidin-7(4H)-one [Compound P17] |  |  |  |  | 1.56 | MIC (Mtb H37Rv [2]; read-out: MIC in 7H9 ADC): 6.25 µM; IC50 (HepG2 cells; [11]): 93.8 µM; IC50 (HepG2 cells; [12]): > 100 µM
CC(C)c1nn2c(=O)cc(-c3ccccc3)[nH]c2c1-c1ccccc1 [Compound P23, 2-Isopropyl-3,5-diphenylpyrazolo[1,5-a]pyrimidin-7(4H)-one] | > 100 | 12.5 (≈ 4.12 µg/mL) | 86.2 | > 100 |  | 
O=c1cc(CC2CCCCC2)[nH]c2c(-c3ccc(Cl)cc3)cnn12 [Compound 2, 3-(4-Chlorophenyl)-5-(cyclohexylmethyl)pyrazolo[1,5-a]pyrimidin-7(4H)-one, reference compound] | 9.38 (≈ 3.21 µg/mL) | 0.78 (≈ 0.267 µg/mL) |  |  |  | reporter gene assay DNA damage [5]: no; reporter gene assay cell wall [6]: no; MIC (Mtb strain H37Rv; GAST/Fe, read-out: MIC GAST): 19 µM (≈ 6.49 µg/mL); MIC (Mtb strain H37Rv; pH 6, read-out: MIC nitrate/butyrate): 6.25 µM (≈ 2.14 µg/mL); MIC (Mtb strain H37Rv; read-out: MIC 7H9): 19 µM (≈ 6.49 µg/mL); MIC (Mtb strain H37Rv; read-out: MIC Chol): 12.5 µM (≈ 4.27 µg/mL); MIC (Mtb strain H37Rv; read-out: MIC GBSA/DBSA): 4.7 µM (≈ 1.61 µg/mL); MIC (Mtb H37Rv WT): 0.39 µM (≈ 0.133 µg/mL); increase in potency under iron-depleted conditions (MIC ratio) (Mtb H37Rv [1]): greater efficacy under iron-limited conditions
Cc1nn2c(=O)cc(CC3CCCCC3)[nH]c2c1-c1ccccc1 [Compound P9, 5-(Cyclohexylmethyl)-2-methyl-3-phenylpyrazolo[1,5-a]pyrimidin-7(4H)-one] | > 100 | > 100 | 50.5 | 85.8 |  | 
COc1cc(-c2ccccc2)nc2c(-c3ccccc3)c(C)nn12 [Compound P1, 7-Methoxy-2-methyl-3,5-diphenylpyrazolo[1,5-a]pyrimidine] | 100 (≈ 31.5 µg/mL) | > 100 |  |  |  | 
COc1c(N2C[C@@H]3CCCN[C@@H]3C2)c(F)cc2c(=O)c(C(=O)O)cn(C3CC3)c12 [MOX, moxifloxacin] |  |  |  |  |  | reporter gene assay DNA damage [5]: yes
Nc1nn2c(=O)cc(-c3ccccc3)[nH]c2c1-c1ccccc1 [Compound P4, 2-Amino-3,5-diphenylpyrazolo[1,5-a]pyrimidin-7(4H)-one] | 28.1 (≈ 8.5 µg/mL) | 25 (≈ 7.56 µg/mL) |  |  | 25 (≈ 7.56 µg/mL) | 
O=c1cc(-c2ccc(F)c(F)c2)[nH]c2c(-c3ccc(Cl)cc3)cnn12 [Compound P26, 3-(4-Chlorophenyl)-5-(3,4-difluorophenyl)pyrazolo[1,5-a]pyrimidin-7(4H)-one] | 12.5 (≈ 4.47 µg/mL) | 12.5 (≈ 4.47 µg/mL) | 18.5 | 57.2 |  | potency relative to P25 (Mtb H37Rv [2]): 4 fold
5-(Furan-3-yl)-2-methyl-3-phenylpyrazolo[1,5-a]pyrimidin-7(4H)-one [Compound P14] |  |  |  |  | 3.12 | MIC (Mtb H37Rv [2]; read-out: MIC in 7H9 ADC): 25.0 µM and 25 µM; IC50 (HepG2 cells; [11]): > 100 µM; IC50 (HepG2 cells; [12]): > 100 µM
5-(2-Fluorophenyl)-2-methyl-3-phenylpyrazolo[1,5-a]pyrimidin-7(4H)-one [Compound P16] |  |  |  |  | 3.12 | MIC (Mtb H37Rv [2]; read-out: MIC in 7H9 ADC): 12.5 µM; IC50 (HepG2 cells; [11]): > 100 µM; IC50 (HepG2 cells; [12]): > 100 µM
